Measurements reported in patent US20250325567A1, “COADMINISTRATION OF POLYC[…] AMINE/AMIDE A[…] ENHANCE EFFICACY AGAINST PAIN” (University of Connecticut, priority 2024, published 2025).
“Also recorded” adds a separate entry of the source.

Tests used:
F-11 (neuronal) cells = test: Dose dependent cytotoxicity towards F-11 neuronal cells; format: cell-based; conditions: F11 cells, 24 hour incubation; for cytotoxicity: up to 20 μM
Experimental: FIG. 4 Dose dependent cytotoxicity of Dicannabidiol (diCBD) adipate and AM1241 towards F-11 (neuronal) cells after 24 hour incubation.

[1] = tested on: activated bone marrow macrophages; test: Anti-inflammatory response, pro-inflammatory marker gene expression; format: cell-based; conditions: for IL-1B gene expression / IL-6 gene expression / Nos2 gene expression / TNF-α gene expression: 20 μM
Excerpt: FIG. 5 Anti-inflammatory efficacy of Dicannabidiol (diCBD) adipate and AM1241 towards inflamed bone marrow macrophages.
AM1241 was used as comparison due to its commercial availability.

[2] = Solubility study at different pHs; format: physicochemical; conditions: 1 mg in 1 mL of water and ethanol, pH 1 to pH 12
Experimental: A solubility study was conducted on the Dicannabidiol adipate at different pHs. Twelve vials were prepared by placing 1 mg of the dimer in 1 mL of water and ethanol of different pH, from pH 1 to pH 12. […] The hypothesis for the dimer being soluble in basic water is due to the bonding of the base with the phenolic oxygen of the dimer, thus producing the salt and easily solubilizing in water. […] Adipic acid is widely used in food and medicinal applications and is considered compatible and safe in the human body.

[3] = Degradation study: thermal and UV light; format: physicochemical
Experimental: A degradation study was conducted in two parts: thermal degradation and UV light degradation. In the thermal degradation study, the Dicannabidiol adipate was heated to 175° C. in aerobic and anaerobic conditions and the changes were monitored by 1H NMR spectroscopy. In the UV light exposure study, a sample of Dicannabidiol adipate was kept under environmental conditions and UV light for several days and was constantly monitored by 1H NMR spectroscopy. From the results of the two experiments, it was concluded that the Dicannabidiol adipate is stable against the degradation caused from heat and UV exposure. […] This limits its misuse and abuse. Further, this indicates there will be no need to refrigerate the CBD-adipate dimer drug, and less issues, compared to CBD, with its shipping/handling.

rat osteoarthritis model = test: Rat osteoarthritis model (monoiodo acetate), mechanical allodynia; format: in vivo
Experimental: Briefly, baseline behavioral measurements were quantified prior to induction of osteoarthritis. Monoiodo acetate was used to induce osteoarthritis via intra-articular injection into the rear right knee joint followed 24 hours later by a single intra-articular injection of the designated treatment group (FIG. 9).

Row | Structure (SMILES) | cytotoxicity (F-11 (neuronal) cells) | IL-1B gene expression [1] | IL-6 gene expression [1] | Nos2 gene expression [1] | TNF-α gene expression [1] | solubility in acidic conditions ([2]; acidic) | solubility in basic pH ([2]; basic) | cell viability (F-11 (neuronal) cells; 20 μM) | cytotoxicity (F-11 (neuronal) cells; listed as CBD-adipate dimer) | anti-inflammatory effect in vitro [1] | stability against degradation caused from UV exposure ([3]; environmental conditions and UV light for several days, monitored by 1H NMR) | stability against degradation caused from heat ([3]; heated to 175° C., aerobic and anaerobic, monitored by 1H NMR) | degradation into psychoactive molecules such as THC ([3]; thermal) | pain level after the anesthetic action, versus initial pain (rat osteoarthritis model; after drug is no longer active) | pain free duration (rat osteoarthritis model; rat model of osteoarthritis)
1 | CN1CCCCC1Cn1cc(C(=O)c2cc([N+](=O)[O-])ccc2I)c2ccccc21 (centres unmarked) [AM1241, reference compound] | significantly increased cytotoxicity | significantly downregulate | significantly downregulate | significantly downregulate | Neither of these drugs showed any significant effect | – | – | – | – | – | – | – | – | – | –
2 | C=C(C)[C@@H]1CCC(C)=C[C@H]1c1c(O)cc(CCCCC)cc1OC(=O)CCCCC(=O)Oc1cc(CCCCC)cc(O)c1[C@@H]1C=C(C)CC[C@H]1C(=C)C [Dicannabidiol adipate] | minimal cytotoxicity; also recorded: no cytotoxicity; also recorded: minimal toxicity | significantly downregulate; also recorded: significant reduction | significantly downregulate; also recorded: significant reduction | significantly downregulate; also recorded: significant reduction | Neither of these drugs showed any significant effect | not soluble | solubilizes | above 80% | minimal dose dependent cell toxicity | potent anti-inflammatory effect | stable | stable | does not degrade | – | –
3 | CCCN1CCCC[C@H]1C(=O)Nc1c(C)cccc1C [Ropivacaine] | – | – | – | – | – | – | – | – | – | – | – | – | – | more pain | 2 days
